Our source for the TGI and GI50 values is PubChem BioAssay (NCI).

Structures are written as SMILES.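 Growth conditions: 96-well plates. Treatment: test compound, 48 hours, 5 concentrations. Analysis: linear interpolation between bracketing concentrations; unreached endpoints set to highest concentration. GI50 marks 50% less growth. TGI: concentration producing complete growth inhibition.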

Test systems include SW-620 colon; SF-539 CNS; CAKI-1 renal; NCI-H460 lung; MDA-MB-435; MDA-MB-231 breast; LOX IMVI melanoma; SNB-19 CNS; DU-145 prostate; M14 melanoma; A498 renal; HCC-2998 colon.
Holding throughout (assay): DTP human tumour cell line panel, 48 h

As usually defined, the TGI is the concentration giving total growth inhibition. On to `NC1=Nc2ccccc2Sc2nncn21`, for which the TGI in the test on SW-620 colon, in the test with SF-539 CNS, with CAKI-1 renal, in the test with NCI-H460 lung, in the test on MDA-MB-435 and in the test on MDA-MB-231 breast was more than 100 µM in each case. Besides, the TGI in the test with LOX IMVI melanoma, with SNB-19 CNS, in the test on DU-145 prostate, with M14 melanoma, with A498 renal and in the test with HCC-2998 colon was more than 100 µM throughout.
Take `O=S(=O)(O)c1ccc(N=Nc2ccccc2)cc1`: the TGI in the test on SW-620 colon, in the test with SF-539 CNS, in the test on CAKI-1 renal, with NCI-H460 lung, in the test on MDA-MB-435 and in the test on MDA-MB-231 breast was more than 100 µM throughout. Besides, the TGI with LOX IMVI melanoma, in the test with SNB-19 CNS, in the test with DU-145 prostate, in the test with M14 melanoma, in the test with A498 renal and in the test with HCC-2998 colon was more than 100 µM throughout.
As a reminder, the GI50 is the concentration giving 50% growth inhibition. As to `FC1(F)ON2CCc3ccccc3C2[C@H]1c1ccccc1` (some centres not stated), the GI50 in the test on SW-620 colon, in the test on CAKI-1 renal, with NCI-H460 lung, in the test on MDA-MB-435, in the test with SNB-19 CNS and in the test with DU-145 prostate was more than 100 µM throughout. Besides, the GI50 in the test on A498 renal and in the test on HCC-2998 colon was more than 100 µM throughout. Moreover, the TGI with SW-620 colon, with SF-539 CNS, with CAKI-1 renal, with NCI-H460 lung, in the test with MDA-MB-435 and in the test with MDA-MB-231 breast was more than 100 µM each time. Besides, the TGI in the test on LOX IMVI melanoma, in the test with SNB-19 CNS, in the test with DU-145 prostate, in the test with M14 melanoma, in the test on A498 renal and in the test on HCC-2998 colon was more than 100 µM each time.
`Fc1cc(C2=Nn3c(COc4ccccc4Cl)nnc3S/C2=C\c2ccc(Cl)cc2)c(Cl)cc1Cl`: the TGI in the test on SW-620 colon was 39.9 µM; with SF-539 CNS it was more than 100 µM; in the test on CAKI-1 renal it was 31.5 µM; in the test with NCI-H460 lung, more than 100 µM; in the test on MDA-MB-435 it was 6.3 µM; in the test on MDA-MB-231 breast it was more than 100 µM. Also, the TGI in the test with LOX IMVI melanoma was found to be 25.2 µM; in the test with DU-145 prostate, 81.7 µM; with M14 melanoma, 17 µM; with A498 renal, 29.7 µM; in the test on HCC-2998 colon, 16.3 µM.
Consider `COc1ccc(CCN2CCN(CCCc3ccccc3)CC2)cc1`, for which the TGI with SW-620 colon, in the test on SF-539 CNS, in the test with CAKI-1 renal, with NCI-H460 lung, with MDA-MB-435 and with MDA-MB-231 breast was more than 100 µM throughout. Also, the TGI with LOX IMVI melanoma, in the test on SNB-19 CNS, in the test on DU-145 prostate, in the test with M14 melanoma, with A498 renal and in the test with HCC-2998 colon was more than 100 µM each time.
For `O=c1[nH]c(Nc2ccc(Br)c(C(F)(F)F)c2)nc2nc[nH]c12`, the TGI in the test on SW-620 colon, in the test with SF-539 CNS, in the test on CAKI-1 renal, with NCI-H460 lung, in the test on MDA-MB-435 and in the test with MDA-MB-231 breast was more than 100 µM in each case. Besides, the TGI in the test on LOX IMVI melanoma was more than 100 µM; in the test on SNB-19 CNS, more than 100 µM; in the test with DU-145 prostate, more than 100 µM; with M14 melanoma, more than 100 µM; in the test on A498 renal, more than 100 µM; in the test on HCC-2998 colon, 40.5 µM.
Consider `NS(=O)(=O)c1ccc(NC(=O)N/N=C/c2ccccc2[N+](=O)[O-])cc1`, for which the concentration for total growth inhibition (TGI) in the test with SW-620 colon was more than 100 µM; in the test with SF-539 CNS, more than 100 µM; with CAKI-1 renal, more than 100 µM; in the test with NCI-H460 lung, more than 100 µM; in the test with MDA-MB-435 it was 42.7 µM; with MDA-MB-231 breast it was more than 100 µM. Besides, the TGI with LOX IMVI melanoma was more than 100 µM; with SNB-19 CNS, more than 100 µM; in the test on DU-145 prostate, more than 100 µM; with M14 melanoma, 85.3 µM; in the test with A498 renal, more than 100 µM; in the test with HCC-2998 colon, more than 100 µM.
As to `C=C1C2CCC3C4(C)CCCC(C)(C(=O)O)C4CCC3(C2)C1OC(=O)/C(C)=C/C` (configuration not stated), the TGI in the test with SW-620 colon was more than 100 µM; in the test with SF-539 CNS it was 55.1 µM; with CAKI-1 renal, more than 100 µM; in the test on NCI-H460 lung it was more than 100 µM; with MDA-MB-435, more than 100 µM; in the test with MDA-MB-231 breast, 46.9 µM. Moreover, the TGI is more than 100 µM with LOX IMVI melanoma; more than 100 µM in the test with DU-145 prostate; 45.1 µM in the test with M14 melanoma; 60.4 µM with A498 renal; 69.5 µM in the test with HCC-2998 colon.
On to `CCn1c(SCC(=O)N/N=C2\SCC(=O)N2c2ccc(C)cc2)nc2ccccc2c1=O`, for which the TGI in the test on SW-620 colon was more than 100 µM; in the test on SF-539 CNS, 33.5 µM; in the test with CAKI-1 renal it was 33.2 µM; in the test with NCI-H460 lung, 57.4 µM; with MDA-MB-435, 43.8 µM; with MDA-MB-231 breast it was 36.3 µM. Besides, the TGI with LOX IMVI melanoma is 55.6 µM; with SNB-19 CNS, 43.6 µM; in the test with DU-145 prostate, 75 µM; in the test with M14 melanoma, more than 100 µM; in the test on A498 renal, 38.4 µM; with HCC-2998 colon, more than 100 µM.
Turning to `C#CC1(O)CCC2[C@@H]3CCc4cc(Oc5nc(F)nc(-c6c(C)c(C(=O)OCC)n7ccccc67)n5)ccc4C3CC[C@@]21C` (some centres not stated), the TGI in the test with SW-620 colon, in the test with SF-539 CNS, in the test on CAKI-1 renal, in the test with NCI-H460 lung, in the test with MDA-MB-435 and in the test on MDA-MB-231 breast was more than 100 µM in each case. Also, the TGI with LOX IMVI melanoma, with SNB-19 CNS, in the test on DU-145 prostate, in the test on M14 melanoma, in the test on A498 renal and in the test on HCC-2998 colon was more than 100 µM throughout.
As to `COC(=O)c1ccc(NCc2cc(OC)ccc2OC)cc1`, the TGI in the test with SW-620 colon, in the test with SF-539 CNS, with CAKI-1 renal, in the test on MDA-MB-435, with MDA-MB-231 breast and in the test with LOX IMVI melanoma was more than 100 µM in each case. Besides, the TGI was more than 100 µM with SNB-19 CNS; more than 100 µM in the test on DU-145 prostate; more than 100 µM in the test on M14 melanoma; 78.8 µM with A498 renal; more than 100 µM in the test on HCC-2998 colon.
